Laboratory results: US20240409517A1, “ORGANIC COMPOUNDS” (GIVAUDAN SA, priority 2021, published 2024)

Legend:
Type in all cases: in vivo
sensory panel [1] = experiment: Effect on cheese sauce, sensory panel; conditions: 50 ppm compound
Description: The effect of the compound of example 1 on cheese sauce was explored. Therefore, a cheese sauce has been compared by a sensory panel with a sample of the sauce further comprising 50 ppm of the compound of example 1.

sensory panel [2] = experiment: Effect on processed meat, sensory panel; conditions: 70 ppm compound
Description: Samples of processed meat with full salt flavor and sodium reduced flavor have been tasted by a sensory panel with and without the compound of example 1.
Sample 1 was comprising a full salt flavor base.
Sample 2 was comprising a full salt flavor base and 70 ppm of the compound of example 1.
Sample 3 was comprising a salt reduced (33.3%) flavor base and a saltiness flavor modulator.comprising KCl.
Sample 4 was comprising a salt reduced (33.3%) flavor base, a saltiness flavor modulator.comprising KCl, and 70 ppm of the compound of example 1.

sensory panel [3] = experiment: Effect on vegan cheese, sensory panel; conditions: vegan cheese with 0.2% cheese parmesan natural flavor, 70 ppm compound
Description: Samples of vegan cheese comprising 0.2% cheese parmesan natural flavor have been compared with and without the compound of example 1 by a sensory panel.

sensory panel [4] = experiment: Effect on model broth base, sensory panel; conditions: model broth base with 0.3% NaCl, 50 ppm compound
Description: A model broth base, comprising 0.3% of NaCl was compared with a sample further comprising 50 ppm of the compound of example 1.
(§1) The solutions were tasted by a sensory panel.

sensory panel [5] = experiment: Salt enhancement in 0.5% NaCl aqueous solution, sensory panel; conditions: 0.5% NaCl aq. solution with 50 ppm compound, compared with 0.5% NaCl alone
Description: The solutions were tasted by a sensory panel. Solution A was describes as “salty”.
Aqueous solutions comprising 0.5% NaCl and 50 ppm of the compounds of example 2-21, respectively, have been prepared and tasted by a sensory panel in comparison with an aqueous solution comprising 0.5% NaCl.
Aqueous solutions comprising 0.5% NaCl and 50 ppm of the compounds of example 38-58, respectively, have been prepared and tasted by a sensory panel in comparison with an aqueous solution comprising 0.5% NaCl.

sensory panel [6] = experiment: Bitter masking in 0.3% KCl solution, sensory panel; conditions: 0.3% KCl with 50 ppm compound, compared with 0.3% KCl alone
Description: as §1

sensory panel [7] = experiment: Effect on potato chips, sensory panel; conditions: potato chips with 1.5% salt, 70 ppm compound
Description: Potato chips with 1.5% salt have been tasted by a sensory panel with and without additional compound of example 1.

sensory panel [8] = experiment: Effect on soy based vegan burger, sensory panel; conditions: 70 ppm compound
Description: Soy based vegan burgers with and without the compound of example 1 have been tasted by a sensory panel.

sensory panel [9] = experiment: Effect on corn curls with cheese flavor, sensory panel; conditions: 70 ppm compound
Description: Corn curls with cheese flavor with and without addition of the compound of example 1 have been compared by a sensory panel.

sensory panel [10] = experiment: Umami enhancement in savoury model solution (NaCl, MSG, Ribotides), sensory panel; conditions: 0.5% NaCl, 0.03% MSG, 0.007% Ribotides with 50 ppm compound, compared with solution A without compound
Description: The solutions were tasted by a sensory panel. Solution A is a model solution for savoury taste, containing MSG (monosodium glutamate) and Ribotides (IMP/GMP, 50/50 mixture) as savoury taste enhancer.
Two aqueous solutions have been prepared: • A) 0.5% NaCl, 0.03% MSG, 0.007% Ribotides, and • B) 0.5% NaCl, 0.03% MSG, 0.007% Ribotides and 50 ppm of the compound of example 38-58, respectively.

sensory panel [11] = experiment: Salt enhancement in 0.3% NaCl solution at different concentrations, sensory panel
sensory panel [12] = experiment: Taste in water by a sensory panel
sensory panel [13] = experiment: Effect on mayonnaise, sensory panel; conditions: commercially available mayonnaise, 70 ppm compound
Description: Samples of commercially available mayonnaise with and without addition of the compound of example 1 have been compared by a sensory panel.

SMILES: O=C(/C=C/c1c[nH]cn1)NCCc1c[nH]cn1 [Example 1, (2E)-3-(1H-imidazol-4-yl)-N-[2-(1H-imidazol-4-yl)ethyl]prop-2-enamide]
- taste versus plain cheese sauce (sensory panel [1]): more mineral and salty, with a mineralic linger, and having a natural aged cheese character
- taste of processed meat, sample 2 versus sample 1 (sensory panel [2]; full salt flavor base): more salty and mineral
- taste of processed meat, sample 4 versus sample 1 (sensory panel [2]; salt reduced (33.3%) flavor base with saltiness flavor modulator comprising KCl): improved salt-peak, increased salinity, prolonged saltiness, significantly reduced bitterness and astringency, and increased salivation
- taste versus vegan cheese without compound (sensory panel [3]): more salty and mineral, and the overall taste is lifted
- acidity of the broth base (sensory panel [4]): The sharp acidity of the broth base was reduced
- taste versus model broth base (sensory panel [4]): more mineral and salty
- salty taste versus 0.5% NaCl solution (sensory panel [5]): more salty with a mineralic note
- bitter and salty taste versus 0.3% KCl solution (sensory panel [6]): less bitter and more salty and mineral
- taste versus potato chips without compound (sensory panel [7]): a higher salty impact and a lingering effect
- taste versus vegan burger without compound (sensory panel [8]): more salty, having a mineral linger, contributing well to the perception of a burger
- taste versus corn curls without compound (sensory panel [9]): more salty, lingering and mineralic
- saltiness and umami versus savoury model solution (sensory panel [10]): strong boost of saltiness and umami
- upper level at which the salt enhancing effect was perceived (sensory panel [11]): up to 200 ppm
- salt enhancement in 0.3% NaCl solution (sensory panel [11]; 1 ppm or higher): a salt enhancing effect, providing a more lingering, mineralic and fuller salt taste
- salt enhancement in 0.3% NaCl solution (sensory panel [11]; below 1 ppm): No salt enhancement was perceived
- taste effect in water (sensory panel [12]; 50 ppm or higher, noticeable up to 1000 ppm): slight effect of mouth drying
- taste effect in water (sensory panel [12]; up to 40 ppm): no effect was noticed
- taste as such in water (sensory panel [12]; up to 1000 ppm): no taste as such was perceived, in particular no saltiness
- taste versus pure mayonnaise (sensory panel [13]): instant tingly salty with a mineral linger and enhanced acidity
